Earlier results in patent US6319951A, “Use of 3-amino-4-hydroxybenzoic acid for the treatment of retroviral infections” (priority 1996, dated 2001).

Assays:
HIV [1] = conditions: in presence of normal serum iron; cited from earlier work
HIV [2] = conditions: reported for AZT; cited from earlier work

Cc1cn([C@H]2C[C@H](N=[N+]=[N-])[C@@H](CO)O2)c(=O)[nH]c1=O [AZT]
bone marrow depression and anaemia (HIV [1]): causes bone marrow depression and anaemia in presence of normal serum iron
reported equivalent increase in CD4 (HIV [2]): 81
